Results taken from ChEMBL document CHEMBL1125070, “Benzotriazinones as "virtual ring" mimics of o-methoxybenzamides: novel and potent 5-HT3 receptor antagonists” (J Med Chem, 1990).

target: Serotonin 3 (5-HT3) receptor (Rattus norvegicus) (UniProt P35563+Q9JJ16); test: Antagonistic activity against 5-hydroxytryptamine 3 receptor as inhibition of 5-HT-induced bradycardia (von Bezold-jarisch reflex) in anesthetized rat; format: functional

Compared with CN1C2CCC1CC(n1cnc3cc(N)c(Cl)cc3c1=O)C2 (stereo unspecified), CN1C2CCC1CC(n1nnc3cc([N+](=O)[O-])c(Cl)cc3c1=O)C2 (stereo unspecified) is 25-fold lower in ID50: 0.33 mg/kg for the first, 0.013 mg/kg for the second.

Compared with CN1[C@@H]2CC[C@H]1C[C@@H](OC(=O)c1c[nH]c3ccccc13)C2, CN1[C@@H]2CC[C@H]1C[C@@H](OC(=O)c1cc(Cl)cc(Cl)c1)C2 is 25-fold higher in ID50: 0.0014 mg/kg for the first, 0.035 mg/kg for the second.

Going from COc1cc(N)c(Cl)cc1C(=O)NC1CC2CCC(C1)N2C (stereo unspecified) to COc1ccc(Cl)cc1C(=O)NC1CC2CCC(C1)N2C (stereo unspecified), the ID50 rises from 0.0008 mg/kg to 0.015 mg/kg (19-fold).

First: CN1C2CCC1CC(n1nnc3ccccc3c1=O)C2 (stereo unspecified)
Second: CN1C2CCC1CC(n1nnc3ccc(Cl)cc3c1=O)C2 (stereo unspecified)
The ID50 of the first is higher: greater than 0.05 mg/kg for the first, 0.012 mg/kg for the second.

Compared with CN1C2CCC1CC(NC(=O)c1ccc(N)c(Cl)c1)C2 (stereo unspecified), COc1cc(N)ccc1C(=O)NC1CC2CCC(C1)N2C (stereo unspecified) is 2.2-fold lower in ID50: 0.036 mg/kg for the first, 0.016 mg/kg for the second.

Nc1cc2nnn(C3CN4CCC3CC4)c(=O)c2cc1Cl (stereo unspecified) was tested, and the ID50 was 0.0036 mg/kg.
